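Grown in 96-well plates, cells were treated for 48 hours with each compound at five concentrations. Insufficient inhibition: endpoint recorded as highest concentration tested. GI50 marks 50% less growth.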 Activity calls are given as the source filed them. Rule as the data show it: active = GI50 up to about 1.1 µM and inactive = higher.
Tests used:
Experiment in all cases: NCI anticancer screen, dose series, 48 h
[1] = system: A549
[2] = system: HL-60
[3] = system: MDA-MB-435
[4] = system: SK-OV-3
[5] = system: ACHN
[6] = system: U-251
[7] = system: PC-3
[8] = system: DU-145
[9] = system: SR
[10] = system: MCF7
[11] = system: NCI-H23
[12] = system: SK-MEL-28
[13] = system: IGROV-1
[14] = system: NCI-H226
[15] = system: CAKI-1
[16] = system: NCI-H522
[17] = system: SF-539
[18] = system: MDA-N
[19] = system: T47D

Measured: GI50

Cc1cccc2c1c(=O)c1c(O)cc(O)cc1n2C
inactive: [1] > 100 µM | [2] > 100 µM | [3] > 100 µM | [4] 66.1 µM | [5] > 100 µM | [6] > 100 µM | [7] > 100 µM | [8] > 100 µM | [9] > 100 µM | [10] > 100 µM | [11] > 100 µM | [12] > 100 µM | [13] > 100 µM | [14] > 100 µM | [15] > 100 µM | [16] 97.7 µM | [17] > 100 µM | [18] > 100 µM

O=C(Nc1ccccc1-c1nn(CO)c(=S)n(CO)c1=O)C(F)(F)F
inactive: [1] > 100 µM | [4] > 100 µM | [5] > 100 µM | [6] > 100 µM | [9] > 100 µM | [11] > 100 µM | [12] > 100 µM | [13] > 100 µM | [14] > 100 µM | [15] > 100 µM | [16] > 100 µM | [17] > 100 µM

CCOC(=O)C1CCCCc2sc(N)c(C#N)c21 (stereo not given)
inactive: [1] > 100 µM | [2] > 100 µM | [5] > 100 µM | [6] > 100 µM | [7] > 100 µM | [9] > 100 µM | [10] > 100 µM | [11] > 100 µM | [12] > 100 µM | [13] > 100 µM | [14] > 100 µM | [18] > 100 µM

N/N=C(\N)Nc1cccc2ccccc12
inactive: [1] > 100 µM | [2] > 100 µM | [3] > 100 µM | [4] > 100 µM | [5] > 100 µM | [6] > 100 µM | [8] > 100 µM | [9] > 100 µM | [10] > 100 µM | [11] > 100 µM | [12] > 100 µM | [13] > 100 µM | [14] > 100 µM | [19] > 100 µM | [17] > 100 µM

O=C1C[C@H]2[C@H](c3ccc(Br)cc3)[C@H]3C(=O)c4ccccc4NC(=O)[C@@H]3[C@@]2(O)c2ccccc2N1
inactive: [1] 11.6 µM | [2] 3.09 µM | [3] 10 µM | [4] 21 µM | [5] 11.2 µM | [6] 22.1 µM | [7] 8.15 µM | [8] 24 µM | [9] 7.41 µM | [10] 11.1 µM | [11] 10.4 µM | [12] 26.5 µM | [13] 8.22 µM | [14] 14.4 µM | [15] 5.85 µM | [16] 12.1 µM | [17] 19.5 µM | [18] 17.1 µM

COC(=O)c1nc2c(C)c(O)c(O)c([C@H](C)CCC=C(C)C)c2o1
inactive: [1] 27.9 µM | [2] 16.7 µM | [3] 26.8 µM | [4] 40.6 µM | [5] 22.6 µM | [6] 28.5 µM | [7] 26.6 µM | [8] 65.5 µM | [9] 7 µM | [10] 36.3 µM | [11] 28.1 µM | [12] 32.7 µM | [13] 20.9 µM | [14] 17.9 µM | [19] 39.8 µM | [15] 23.8 µM | [17] 20 µM

CC(C)OC(=O)NCCn1cc(-c2ccccc2)nn1
inactive: [1] > 100 µM | [2] > 100 µM | [3] > 100 µM | [5] > 100 µM | [6] > 100 µM | [7] > 100 µM | [8] > 100 µM | [9] > 100 µM | [10] > 100 µM | [11] > 100 µM | [12] > 100 µM | [14] > 100 µM | [15] > 100 µM | [16] > 100 µM | [17] > 100 µM

CC1CC2(CC[C@@H]1O)OCCO2 (stereo not given in full)
inactive: [1] > 100 µM | [2] > 100 µM | [4] > 100 µM | [6] > 100 µM | [11] > 100 µM | [13] > 100 µM | [15] > 100 µM | [16] > 100 µM | [17] > 100 µM

CSCCCNC(=O)c1csc(-c2csc(CCN)n2)n1
inactive: [1] > 100 µM | [2] > 100 µM | [3] > 100 µM | [4] > 100 µM | [5] > 100 µM | [6] > 100 µM | [7] > 100 µM | [8] > 100 µM | [9] 91.4 µM | [10] 74.1 µM | [11] > 100 µM | [12] > 100 µM | [13] 53.6 µM | [19] 74.1 µM | [15] > 100 µM | [16] > 100 µM | [17] > 100 µM

COc1cc(/C=C/c2ccc(OC)c(OC)c2)cc(OC)c1 [(E)-3,4,3',5'-TETRAMETHOXYSTILBENE]
inactive: [1] 37.8 µM | [3] 25.7 µM | [4] 73.6 µM | [5] 30.5 µM | [6] 24.7 µM | [7] 62.7 µM | [8] 45.2 µM | [9] 30.9 µM | [10] 57 µM | [11] 22.9 µM | [12] 36.2 µM | [13] 46.9 µM | [14] 30.2 µM | [19] 23.6 µM | [15] 32.9 µM | [16] 18.8 µM | [17] 41.3 µM

From ChEMBL document CHEMBL1201862, “PubChem BioAssay data set” (2004)
